The values below come from patent US11168093B2, “Thienopyridine inhibitors of RIPK2” (Celgene Corporation, priority 2018, dated 2021).

The experiment deals with RIPK2 enzyme (Homo sapiens (Human), UniProt O43353). As to the kind of experiment: RIPK2 inhibition assay, TR-FRET LanthaScreen Tracer 199 screening assay. Format: binding. As to conditions: 5 nM RIPK2 enzyme, Tracer 199 at 50 nM, Eu-anti-His Antibody at 2 nM, 1 hour incubation. In outline: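 TR-FRET binding displacement: 5 nM RIPK2, 50 nM Tracer 199, 2 nM Eu-anti-His antibody in 1× kinase reaction buffer, 1 h, read at room temperature (340 ex/665 and 615 em). No-enzyme background subtracted; percent inhibition versus uninhibited controls, IC50 from unconstrained variable-slope fit.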
RIPK2 enzyme, sequence (O43353 whole entry): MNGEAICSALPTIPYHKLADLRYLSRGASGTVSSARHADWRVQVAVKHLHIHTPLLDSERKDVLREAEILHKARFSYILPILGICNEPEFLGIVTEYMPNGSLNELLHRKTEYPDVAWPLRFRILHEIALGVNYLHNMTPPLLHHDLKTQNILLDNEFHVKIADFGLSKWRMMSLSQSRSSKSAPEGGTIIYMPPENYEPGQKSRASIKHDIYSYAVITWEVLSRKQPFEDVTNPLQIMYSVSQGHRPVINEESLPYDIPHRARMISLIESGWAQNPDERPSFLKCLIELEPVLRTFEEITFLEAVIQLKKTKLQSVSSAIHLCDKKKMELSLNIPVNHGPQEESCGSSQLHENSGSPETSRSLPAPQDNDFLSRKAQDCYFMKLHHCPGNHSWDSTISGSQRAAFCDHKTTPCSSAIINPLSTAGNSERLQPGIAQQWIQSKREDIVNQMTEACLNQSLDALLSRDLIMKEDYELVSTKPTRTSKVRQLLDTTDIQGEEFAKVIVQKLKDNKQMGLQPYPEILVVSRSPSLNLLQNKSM
Usually IC50 stands for the midpoint of a concentration-inhibition curve. Read a low IC50 as higher potency. Consider `CC1C(c2cc3c(Nc4ccc5scnc5c4)ccnc3s2)CCCN1CCO` (centres unmarked) [Example 20, 2-(3-(4-(benzo[d]thiazol-5-ylamino)thieno[2,3-b]pyridin-2-yl)-2-methylpiperidin-1-yl)ethan-1-ol], for which the IC50 was ≤ 10 nM. Turning to `C[C@@H]1NCCC[C@@H]1c1cc2c(Nc3ccc4scnc4c3F)ccnc2s1` [Example 57b, 4-fluoro-N-(2-((2S,3S)-2-methylpiperidin-3-yl)thieno-[2,3-b]pyridin-4-yl)benzo[d]thiazol-5-amine], the IC50 is ≤ 10 nM.

`CC1(C)NCCC1c1cc2c(Nc3ccc4scnc4c3F)ccnc2s1` (centres unmarked) [Example 90, N-(2-(2,2-dimethylpyrrolidin-3-yl)thieno[2,3-b]pyridin-4-yl)-4-fluorobenzo[d]thiazol-5-amine]: the half-maximal inhibitory concentration (IC50) was ≤ 10 nM. For `CC1NCCCC1c1cc2c(Nc3ccc4scnc4c3F)c(F)cnc2s1` (single isomer, unassigned) [Example 124d, 4-fluoro-N-(5-fluoro-2-(2-methylpiperidin-3-yl)thieno[2,3-b]pyridin-4-yl)benzo[d]thiazol-5-amine], the 50% inhibitory concentration (IC50) was ≥ 50 nM.

As for `C1=C(c2cc3c(Nc4ccc5scnc5c4)ccnc3s2)C2(CCOC2)NC1` (centres unmarked) [Example 40, N-(2-(7-oxa-1-azaspiro[4.4]non-3-en-4-yl)thieno[2,3-b]pyridin-4-yl)benzo[d]thiazol-5-amine], the concentration for half-maximal inhibition (IC50) is ≤ 10 nM.

`CCC1C(c2cc3c(Nc4ccc5scnc5c4)ccnc3s2)CCCN1C` (centres unmarked) [Example 23a, N-(2-(2-ethyl-1-methylpiperidin-3-yl)thieno[2,3-b]pyridin-4-yl)benzo[d]thiazol-5-amine]: the IC50 was ≤ 10 nM. The figure for `CCN1CCC(c2cc3c(Nc4ccc5scnc5c4F)ccnc3s2)C1C` (centres unmarked) [Example 88, N-(2-(1-ethyl-2-methylpyrrolidin-3-yl)thieno[2,3-b]pyridin-4-yl)-4-fluorobenzo[d]thiazol-5-amine] is ≤ 10 nM; for `CCN1CCC(c2cc3c(Nc4cc5ncsc5cc4F)ccnc3s2)C1(C)C` (centres unmarked) [Example 79, N-(2-(1-ethyl-2,2-dimethylpyrrolidin-3-yl)thieno[2,3-b]pyridin-4-yl)-6-fluorobenzo[d]thiazol-5-amine] it is 20 to 50 nM; for `CC1C(c2cc3c(Nc4ccc5scnc5c4)ccnc3s2)CCCN1C1COC1` (centres unmarked) [Example 17, N-(2-(2-methyl-1-(oxetan-3-yl)piperidin-3-yl)thieno[2,3-b]pyridin-4-yl)benzo[d]thiazol-5-amine] it is 10 to 20 nM. Take `CCN1CCC(c2cc3c(Nc4ccc5scnc5c4)ccnc3s2)C1C` (centres unmarked) [Example 30, N-(2-(1-ethyl-2-methylpyrrolidin-3-yl)thieno[2,3-b]pyridin-4-yl)benzo[d]thiazol-5-amine]: the 50% inhibitory concentration (IC50) was ≤ 10 nM. The figure for `C[C@H]1NCCC[C@@H]1c1cc2c(Nc3c(F)cc4scnc4c3F)ccnc2s1` [Example 67a, 4,6-difluoro-N-(2-((2R,3S)-2-methylpiperidin-3-yl)thieno[2,3-b]pyridin-4-yl)benzo[d]thiazol-5-amine] is ≤ 10 nM; for `CC1NCCCCC1c1cc2c(Nc3ccc4scnc4c3)ccnc2s1` (centres unmarked) [Example 115a, N-(2-(2-methylazepan-3-yl)thieno[2,3-b]pyridin-4-yl)benzo[d]thiazol-5-amine] it is ≤ 10 nM. For the compound `C[C@@H]1NCCC[C@H]1c1cc2c(Nc3c(F)cc4scnc4c3F)ccnc2s1` [Example 68a, 4,6-difluoro-N-(2-((2S,3R)-2-methylpiperidin-3-yl)thieno[2,3-b]pyridin-4-yl)benzo[d]thiazol-5-amine], the IC50 was 10 to 20 nM. In the case of `C[C@H]1[C@H](c2cc3c(Nc4ccc5scnc5c4F)ccnc3s2)CCCN1C` [Example 59, N-(2-((2S,3R)-1,2-dimethylpiperidin-3-yl)thieno[2,3-b]pyridin-4-yl)-4-fluorobenzo[d]thiazol-5-amine] it was ≤ 10 nM; in that of `CC1NCCCC1c1cc2c(Nc3ccc4scnc4c3F)c(F)cnc2s1` (single isomer, unassigned) [Example 124a, 4-fluoro-N-(5-fluoro-2-(2-methylpiperidin-3-yl)thieno[2,3-b]pyridin-4-yl)benzo[d]thiazol-5-amine], ≥ 50 nM. The figure for `CCN1CCC(c2cc3c(Nc4c(F)cc5scnc5c4F)ccnc3s2)C1C` (centres unmarked) [Example 94, N-(2-(1-ethyl-2-methylpyrrolidin-3-yl)thieno[2,3-b]pyridin-4-yl)-4,6-difluorobenzo[d]thiazol-5-amine] is ≤ 10 nM. In the case of `CCN1CCC[C@@H](c2cc3c(Nc4ccc5scnc5c4F)ccnc3s2)[C@H]1C` [Example 64, N-(2-((2R,3R)-1-ethyl-2-methylpiperidin-3-yl)thieno[2,3-b]pyridin-4-yl)-4-fluorobenzo[d]thiazol-5-amine], the IC50 was ≤ 10 nM. Regarding `CCN1CCC=C(c2cc3c(Nc4cc5ncsc5cc4F)ccnc3s2)[C@@H]1C` [Example 52b, N-(2-(1-ethyl-2-methyl-1,2,5,6-tetrahydropyridin-3-yl)thieno[2,3-b]pyridin-4-yl)-6-fluorobenzo[d]thiazol-5-amine], the IC50 is 10 to 20 nM. The figure for `CN1CCC(c2cc3c(Nc4ccc5scnc5c4)ccnc3s2)C1(C)C` (centres unmarked) [Example 35, N-(2-(1,2,2-trimethylpyrrolidin-3-yl)thieno[2,3-b]pyridin-4-yl)benzo[d]thiazol-5-amine] is 10 to 20 nM; for `CCN1CCC(c2cc3c(Nc4cc5ncsc5cc4F)ccnc3s2)C12CCOCC2` (centres unmarked) [Example 86, N-(2-(1-ethyl-8-oxa-1-azaspiro[4.5]decan-4-yl)thieno[2,3-b]pyridin-4-yl)-6-fluorobenzo[d]thiazol-5-amine] it is ≥ 50 nM; for `Fc1cc2scnc2cc1Nc1ccnc2sc(C3CCNC34CCOC4)cc12` (centres unmarked) [Example 81, N-(2-(7-oxa-1-azaspiro[4.4]nonan-4-yl)thieno[2,3-b]pyridin-4-yl)-6-fluorobenzo[d]thiazol-5-amine] it is ≥ 50 nM.

Regarding `CCN1CCC=C(c2cc3c(Nc4c(F)cc5scnc5c4F)ccnc3s2)[C@@H]1C` [Example 72b, (S)—N-(2-(1-ethyl-2-methyl-1,2,5,6-tetrahydropyridin-3-yl)thieno[2,3-b]pyridin-4-yl)-4,6-difluorobenzo[d]thiazol-5-amine], the IC50 was ≤ 10 nM. The figure for `CC1NCCCC1c1cc2c(Nc3cc4ncsc4cc3F)c(F)cnc2s1` (single isomer, unassigned) [Example 122b, 6-fluoro-N-(5-fluoro-2-(2-methylpiperidin-3-yl)thieno[2,3-b]pyridin-4-yl) benzo[d]thiazol-5-amine] is 20 to 50 nM. On to `CC1(C)NCCC1c1cc2c(Nc3ccc4scnc4c3)ccnc2s1` (centres unmarked) [Example 33, N-(2-(2,2-dimethylpyrrolidin-3-yl)thieno[2,3-b]pyridin-4-yl)benzo[d]thiazol-5-amine], for which the IC50 is ≤ 10 nM. The figure for `CCN1CCCC(c2cc3c(Nc4ccc5scnc5c4)ccnc3s2)CC1` (centres unmarked) [Example 110, N-(2-(1-ethylazepan-4-yl)thieno[2,3-b]pyridin-4-yl)benzo[d]thiazol-5-amine] is ≤ 10 nM; for `c1cc(Nc2ccc3scnc3c2)c2cc(C3CCNC34CCOC4)sc2n1` (centres unmarked) [Example 42, N-(2-(7-oxa-1-azaspiro[4.4]nonan-4-yl)thieno[2,3-b]pyridin-4-yl)benzo[d]thiazol-5-amine] it is 10 to 20 nM. In the case of `CC1NCCC1c1cc2c(Nc3ccc4scnc4c3)ccnc2s1` (centres unmarked) [Example 26, N-(2-(2-methylpyrrolidin-3-yl)thieno[2,3-b]pyridin-4-yl)benzo[d]thiazol-5-amine] it was ≤ 10 nM. In the case of `C1=C(c2cc3c(Nc4ccc5scnc5c4)ccnc3s2)CCNCC1` [Example 105, N-(2-(2,3,6,7-tetrahydro-1H-azepin-4-yl)thieno[2,3-b]pyridin-4-yl)benzo[d]thiazol-5-amine] it was ≤ 10 nM; in that of `CC1NCCCC1c1cc2c(Nc3c(F)cc4scnc4c3F)c(F)cnc2s1` (single isomer, unassigned) [Example 126d, 4,6-difluoro-N-(5-fluoro-2-(2-methylpiperidin-3-yl)thieno[2,3-b]pyridin-4-yl)benzo[d]thiazol-5-amine], 10 to 20 nM; in that of `CC1NCCC1c1cc2c(Nc3ccc4scnc4c3F)ccnc2s1` (centres unmarked) [Example 87, 4-fluoro-N-(2-(2-methylpyrrolidin-3-yl)thieno[2,3-b]pyridin-4-yl)benzo[d]thiazol-5-amine], ≤ 10 nM. For `CCN1CC=C(c2cc3c(Nc4ccc5scnc5c4)ccnc3s2)C12CCOC2` (centres unmarked) [Example 44, N-(2-(1-ethyl-7-oxa-1-azaspiro[4.4]non-3-en-4-yl)thieno[2,3-b]pyridin-4-yl)benzo[d]thiazol-5-amine], the half-maximal inhibitory concentration (IC50) is ≤ 10 nM. The figure for `CC1NCCCC1c1cc2c(Nc3ccc4scnc4c3F)c(F)cnc2s1` (single isomer, unassigned) [Example 124c, 4-fluoro-N-(5-fluoro-2-(2-methylpiperidin-3-yl)thieno[2,3-b]pyridin-4-yl)benzo[d]thiazol-5-amine] is ≤ 10 nM; for `CC1C(c2cc3c(Nc4c(F)cc5scnc5c4F)ccnc3s2)CCN1CCO` (centres unmarked) [Example 95, 2-(3-(4-((4,6-difluorobenzo[d]thiazol-5-yl)amino)thieno[2,3-b]pyridin-2-yl)-2-methyl-pyrrolidin-1-yl)ethan-1-ol] it is 10 to 20 nM; for `CCN1CCC=C(c2cc3c(Nc4c(F)cc5scnc5c4F)ccnc3s2)[C@H]1C` [Example 72a, (R)—N-(2-(1-ethyl-2-methyl-1,2,5,6-tetrahydropyridin-3-yl)thieno[2,3-b]-pyridin-4-yl)-4,6-difluorobenzo[d]thiazol-5-amine] it is ≤ 10 nM.

With `COCCN1CCC=C(c2cc3c(Nc4ccc5scnc5c4)ccnc3s2)[C@H]1C` [Example 12a, N-(2-(1-(2-methoxyethyl)-2-methyl-1,2,5,6-tetrahydropyridin-3-yl)thieno[2,3-b]pyridin-4-yl)benzo[d]thiazol-5-amine], the IC50 is ≤ 10 nM.
